Consider three compounds from BindingDB's records for doi:10.1016/0024-3205(91)90562-p (Technion-Israel Institute of Technology, 1991).

SMILES strings stand for the structures. Values joined by “and” are separate entries in the source; they are usually repeats but may differ in a detail not shown here. Equal values may be shown once. Some results are limits rather than exact numbers.

The target in test [1] is Gamma-aminobutyric acid receptor subunit alpha-1 (Rattus norvegicus, UniProt P62813).
Sequence of Gamma-aminobutyric acid receptor subunit alpha-1 (Rattus norvegicus, UniProt P62813) (P62813 whole entry): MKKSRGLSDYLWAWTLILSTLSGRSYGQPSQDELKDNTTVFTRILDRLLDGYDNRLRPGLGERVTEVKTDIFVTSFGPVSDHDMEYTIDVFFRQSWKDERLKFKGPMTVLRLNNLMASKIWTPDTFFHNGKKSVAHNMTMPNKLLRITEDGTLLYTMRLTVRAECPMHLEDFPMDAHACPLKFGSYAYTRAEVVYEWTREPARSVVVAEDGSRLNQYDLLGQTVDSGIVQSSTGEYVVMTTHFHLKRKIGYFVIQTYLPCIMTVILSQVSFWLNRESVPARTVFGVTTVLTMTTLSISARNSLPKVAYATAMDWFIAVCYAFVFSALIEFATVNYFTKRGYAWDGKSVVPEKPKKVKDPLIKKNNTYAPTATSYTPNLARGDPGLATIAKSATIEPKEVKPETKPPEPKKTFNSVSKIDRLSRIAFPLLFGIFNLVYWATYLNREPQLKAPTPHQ
Test [2] concerns the target T1, Gamma-aminobutyric acid receptor subunit alpha-1 (Homo sapiens, UniProt P14867).
T1 sequence (P14867 whole entry): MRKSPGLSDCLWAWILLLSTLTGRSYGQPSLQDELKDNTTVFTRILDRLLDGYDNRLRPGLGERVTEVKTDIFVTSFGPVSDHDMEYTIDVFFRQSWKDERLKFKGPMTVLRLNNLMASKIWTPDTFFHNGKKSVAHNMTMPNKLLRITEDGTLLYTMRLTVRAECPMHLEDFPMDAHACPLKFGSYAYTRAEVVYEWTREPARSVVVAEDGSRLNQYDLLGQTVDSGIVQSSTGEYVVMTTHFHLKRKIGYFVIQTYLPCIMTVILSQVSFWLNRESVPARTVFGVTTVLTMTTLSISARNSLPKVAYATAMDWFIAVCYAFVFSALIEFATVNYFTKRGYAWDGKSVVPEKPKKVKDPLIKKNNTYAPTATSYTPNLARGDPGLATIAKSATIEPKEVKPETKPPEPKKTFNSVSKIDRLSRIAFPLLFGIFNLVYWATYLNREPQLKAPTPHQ

What is called Ki is a measure of affinity in units of concentration, obtained from inhibition or displacement. Lower therefore signals higher affinity. For `CC[C@@H](C)N(C)C(=O)c1cc2ccccc2c(-c2ccccc2Cl)n1` [PK 11195], the Ki in test [1] was 18 nM and 3 nM and 4 nM; in test [2], 8 nM and 5 nM.

With `CN1C(=O)CN=C(c2ccc(Cl)cc2)c2cc(Cl)ccc21` [Ro5-4864], affinity in test [2] was put at a Ki of 750 nM.

As for `O=C1CN=C(c2ccccc2Cl)c2cc([N+](=O)[O-])ccc2N1` [5-(2-chlorophenyl)-7-nitro-1,3-dihydro-2H-1,4-benzodiazepin-2-one], the Ki in test [1] and in test [2] was over 10000 nM throughout.
